Patent publication US20260034044A1, “A PRESERVATIVE COMPOSITION” (AnalytiCon Discovery - Zweigniederlassung der BRAIN Biotech …, priority 2022, published 2026)

How the values were obtained:
Format in all cases: cell-based
[1] = system: Staphylococcus aureus DSM 2569; assay: Antimicrobial activity (MIC); conditions: DSM2569, potato dextrose broth pH 3.8, visual evaluation, read-out: Minimal Inhibitory Concentration (MIC)
[2] = system: Phanerochaete chrysosporium DSM 1556; assay: Antimicrobial activity (MIC); conditions: Phanerodontia chrysosporium, DSM1556, potato dextrose broth pH 3.8, visual evaluation, read-out: Minimal Inhibitory Concentration (MIC)
[3] = system: Streptococcus mutans DSM 20523; assay: Antimicrobial activity (MIC); conditions: DSM20523, potato dextrose broth pH 3.8, visual evaluation, read-out: Minimal Inhibitory Concentration (MIC)
[4] = system: Botrytis cinerea DSM 5145; assay: Antimicrobial activity (MIC); conditions: DSM5145, potato dextrose broth pH 3.8, visual evaluation, read-out: Minimal Inhibitory Concentration (MIC)
[5] = system: Clostridium sporogenes ATCC 19404; assay: Antimicrobial activity (MIC); conditions: ATCC19404, potato dextrose broth pH 3.8, visual evaluation, read-out: Minimal Inhibitory Concentration (MIC)
Protocol: Compounds are dissolved at a concentration of 20 mg/ml using 100% DMSO. • Preculture: yeast and bacteria are plated on potato dextrose agar, resuspended in potato dextrose broth and CFU via OD measurement determined; adjusting CFU of the strain in PDB pH 3.8. • Preculture: for mycel forming fungi spores were directly used after thawing of cryopreserved stocks of known titre. • Final titre used for the assay: Yeast strains 5*10^3 CFU/ml, Bacteria 1*10^6 CFU/ml, Fungi (spores) 5*10^4 CFU/ml • Potato dextrose broth pH 3.8 was used as assay matrix • 500 ppm (0.05%) of the compounds were screened (final DMSO 2.5% (v/v)) • Volume: 100 μl in 96-well format • Positive controls: potassium sorbate, sodium benzoate & triclosan • 28° C. to 30° C., static incubation • Incubation time depending on spoilage organism between 2 and 8 days • Visual evaluation (per eye, for fungi with binocular magnification) Antimicrobial activities are reported in Table 1.

[6] = system: Alternaria alternata DSM 12633; assay: Antimicrobial activity (MIC); conditions: DSM12633, potato dextrose broth pH 3.8, visual evaluation, read-out: Minimal Inhibitory Concentration (MIC)
[7] = system: Zygosaccharomyces bailii DSM 70834; assay: Antimicrobial activity (MIC); conditions: DSM70834, potato dextrose broth pH 3.8, visual evaluation, read-out: Minimal Inhibitory Concentration (MIC)
[8] = system: Enterobacter cloacae DSM 6234; assay: Antimicrobial activity (MIC); conditions: DSM6234, potato dextrose broth pH 3.8, visual evaluation, read-out: Minimal Inhibitory Concentration (MIC)
[9] = system: Zygosaccharomyces rouxii DSM 7525; assay: Antimicrobial activity (MIC); conditions: DSM7525, potato dextrose broth pH 3.8, visual evaluation, read-out: Minimal Inhibitory Concentration (MIC)
[10] = system: Corynebacterium xerosis DSM 20743; assay: Antimicrobial activity (MIC); conditions: DSM20743, potato dextrose broth pH 3.8, visual evaluation, read-out: Minimal Inhibitory Concentration (MIC)
[11] = system: Candida parapsilosis ATCC 20384; assay: Antimicrobial activity (MIC); conditions: Lodderomyces parapsilosis, ATCC20384, potato dextrose broth pH 3.8, visual evaluation, read-out: Minimal Inhibitory Concentration (MIC)
[12] = system: Pseudomonas fluorescens DSM50337; assay: Antimicrobial activity (MIC); conditions: potato dextrose broth pH 3.8, visual evaluation, read-out: Minimal Inhibitory Concentration (MIC)
[13] = system: Clostridium perfringens DSM 756; assay: microbe, parasite or virus in culture; conditions: DSM756, pH 3.8, read-out: Minimal Inhibitory Concentration (MIC)
[14] = system: Penicillium expansum DSM 62841; assay: Antimicrobial activity (MIC); conditions: DSM62841, potato dextrose broth pH 3.8, visual evaluation, read-out: Minimal Inhibitory Concentration (MIC)
[15] = system: Actinomyces viscosus DSM43798; assay: Antimicrobial activity (MIC); conditions: potato dextrose broth pH 3.8, visual evaluation, read-out: Minimal Inhibitory Concentration (MIC)
[16] = system: Enterococcus faecalis ATCC 7080; assay: Antimicrobial activity (MIC); conditions: ATCC7080, potato dextrose broth pH 3.8, visual evaluation, read-out: Minimal Inhibitory Concentration (MIC)
[17] = system: Aspergillus brasiliensis DSM 1988; assay: Antimicrobial activity (MIC); conditions: DSM1988, potato dextrose broth pH 3.8, visual evaluation, read-out: Minimal Inhibitory Concentration (MIC)
[18] = system: Porphyromonas gingivalis DSM 20709; assay: Antimicrobial activity (MIC); conditions: DSM20709, potato dextrose broth pH 3.8, visual evaluation, read-out: Minimal Inhibitory Concentration (MIC)
[19] = system: Brettanomyces naardenensis CBS 6115; assay: Antimicrobial activity (MIC); conditions: CBS6115, potato dextrose broth pH 3.8, visual evaluation, read-out: Minimal Inhibitory Concentration (MIC)
[20] = system: Fusobacterium nucleatum subsp. vincentii DSM 19507; assay: Antimicrobial activity (MIC); conditions: DSM19507, potato dextrose broth pH 3.8, visual evaluation, read-out: Minimal Inhibitory Concentration (MIC)
[21] = system: Lactobacillus paracasei ssp. paracasei DSM 46331; assay: Antimicrobial activity (MIC); conditions: Lacticaseibacillus paracasei, DSM46331, potato dextrose broth pH 3.8, visual evaluation, read-out: Minimal Inhibitory Concentration (MIC)
[22] = system: Campylobacter jejuni DSM 4688; assay: Antimicrobial activity (MIC); conditions: DSM4688, potato dextrose broth pH 3.8, visual evaluation, read-out: Minimal Inhibitory Concentration (MIC)
[23] = system: Yarrowia lipolytica DSM 70561; assay: Antimicrobial activity (MIC); conditions: DSM70561, potato dextrose broth pH 3.8, visual evaluation, read-out: Minimal Inhibitory Concentration (MIC)
[24] = system: Cutibacterium acnes DSM 1897; assay: Antimicrobial activity (MIC); conditions: DSM1897, potato dextrose broth pH 3.8, visual evaluation, read-out: Minimal Inhibitory Concentration (MIC)
[25] = system: Listeria monocytogenes DSM 20600; assay: Antimicrobial activity (MIC); conditions: DSM20600, potato dextrose broth pH 3.8, visual evaluation, read-out: Minimal Inhibitory Concentration (MIC)

Measured: MIC

C[C@@H]1CC[C@@]2(OC1)O[C@H]1CC3C4CC=C5CC(O[C@@H]6O[C@H](CO)[C@@H](O[C@@H]7O[C@@H](C)[C@H](O[C@@H]8O[C@@H](C)[C@H](O)[C@@H](O)[C@H]8O)[C@@H](O)[C@H]7O)[C@H](O)[C@H]6O[C@@H]6O[C@@H](C)[C@H](O)[C@@H](O)[C@H]6O)CC[C@]5(C)C4CC[C@]3(C)[C@@]1(O)[C@@H]2C (stereo partly shown) [B]
80 µg/mL: [5]
> 500 µg/mL: [14]
500 µg/mL: [9]
> 80 µg/mL: [1] | [2] | [3] | [4] | [6] | [7] | [8] | [10] | [11] | [12] | [13] | [15] | [16] | [17] | [18] | [19] | [20] | [21] | [22] | [23] | [24] | [25]

C[C@H]1CC[C@@]2(OC1)O[C@H]1CC3C4CC[C@H]5C[C@@H](O[C@@H]6O[C@H](CO)[C@H](O[C@@H]7O[C@H](CO)[C@@H](O)[C@H](O[C@@H]8OC[C@@H](O)[C@H](O)[C@H]8O)[C@H]7O[C@@H]7O[C@H](CO)[C@@H](O)[C@H](O)[C@H]7O)[C@H](O)[C@H]6O)[C@H](O)C[C@]5(C)C4=CC(=O)[C@]3(C)[C@H]1[C@@H]2C (stereo partly shown) [A]
500 µg/mL: [9]
> 500 µg/mL: [14]
> 80 µg/mL: [1] | [2] | [3] | [4] | [6] | [7] | [8] | [10] | [11] | [12] | [13] | [15] | [16] | [17] | [18] | [19] | [21] | [22] | [23] | [24] | [25]
80 µg/mL: [5] | [20]

CC1CC[C@@]2(OC1)O[C@H]1CC3C4CC=C5C[C@@H](O[C@@H]6O[C@H](CO)[C@@H](O[C@@H]7O[C@@H](C)[C@H](O)[C@@H](O)[C@H]7O)[C@H](O)[C@H]6O[C@@H]6O[C@@H](C)[C@H](O)[C@@H](O)[C@H]6O)CC[C@]5(C)C4CC[C@]3(C)[C@@]1(O)[C@@H]2C (stereo partly shown) [C]
> 80 µg/mL: [1] | [2] | [3] | [4] | [6] | [7] | [8] | [10] | [11] | [12] | [13] | [15] | [16] | [17] | [18] | [19] | [20] | [21] | [22] | [23] | [24] | [25]
> 500 µg/mL: [14]
500 µg/mL: [9]
80 µg/mL: [5]

C[C@H]1CC[C@@]2(OC1)O[C@H]1CC3C4CC[C@H]5C[C@@H](O[C@@H]6O[C@H](CO)[C@H](O[C@@H]7O[C@H](CO)[C@@H](O)[C@H](O)[C@H]7O[C@@H]7O[C@H](CO)[C@@H](O)[C@H](O)[C@H]7O)[C@H](O)[C@H]6O)[C@H](O)C[C@]5(C)C4=CC(=O)[C@]3(C)[C@H]1[C@@H]2C (stereo partly shown) [D]
500 µg/mL: [9]
> 500 µg/mL: [14]
> 80 µg/mL: [1] | [2] | [3] | [4] | [6] | [7] | [8] | [10] | [11] | [12] | [13] | [15] | [16] | [17] | [18] | [19] | [21] | [22] | [23] | [24] | [25]
80 µg/mL: [5] | [20]
